From publication PMC4893628, “Chalcone-based Selective Inhibitors of a C4 Plant Key Enzyme as Novel Potential Herbicides” (Scientific Reports, 2016)
Where two headings read alike, the source gives them in different places.

Legend:
[1] = test system: Corynebacterium glutamicum ATCC13032; test: Bacterial growth in microscale cultivation, C. glutamicum; assay type: cell-based; conditions: for activity at 55 µM / activity at 110 µM / activity at 550 µM / activity at 0.3 µM / activity at 3 µM / activity at 30 µM: Corynebacterium glutamicum; for activity at 55 µM / activity at 110 µM / activity at 550 µM / Lag Phase / activity at 0.3 µM / activity at 3 µM / activity at 30 µM: relative to control
Summary of the method: (§1)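 Inhibitors in DMSO were added to the medium, at a maximum of 400 μM for trans-chalcone and 100 μM for 2'-hydroxychalcone. Cultures were seeded at OD600 0.5, or 0.25 for B. subtilis, and growth was followed as 620 nm backscatter in a BioLector at 1200 rpm. Final backscatter, growth rate and lag phase were compared with DMSO controls.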

[2] = test system: Escherichia coli K-12 MG1655; test: Bacterial growth in microscale cultivation, E. coli; assay type: cell-based; conditions: relative to control; for activity at 55 µM / activity at 550 µM / activity at 0.3 µM / activity at 3 µM / activity at 30 µM: Escherichia coli
Summary of the method: as §1

[3] = test system: Amaranthus retroflexus; test: In planta growth experiment, A. retroflexus; assay type: in vivo; conditions: shoots sprayed, 3 mM
Summary of the method: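 A. retroflexus seedlings at two-leaf stage, grown at 22/20 °C, 16 h light, sprayed once on shoots with 3 mM compound in 2.4% DMSO, 0.1% Tween; DMSO/Tween control.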

With `O=C(/C=C/c1ccccc1)c1cc(O)ccc1O` [Compound 5, 2′,5′-Dihydroxychalcone] the growth ([1]; 550 μM, minimal media) was “abolished growth”, the activity at 55 µM ([1]; ATCC13032, complex medium, 55 µM, read-out: Final Backscatter) was 106% and the activity at 55 µM ([1]; ATCC13032, complex medium, 55 µM, read-out: Growth rate) was 107%. It also gave an activity at 110 µM ([1]; ATCC13032, complex medium, 110 µM, read-out: Final Backscatter) of 103%, an activity at 110 µM ([1]; ATCC13032, complex medium, 110 µM, read-out: Growth rate) of 110% and an activity at 550 µM ([1]; ATCC13032, complex medium, 550 µM, read-out: Final Backscatter) of 118%. For the same compound, the activity at 550 µM ([1]; ATCC13032, complex medium, 550 µM, read-out: Growth rate) was 79%, the activity at 55 µM ([1]; ATCC13032, minimal medium, 55 µM, read-out: Final Backscatter) was 99.7% and the activity at 55 µM ([1]; ATCC13032, minimal medium, 55 µM, read-out: Growth rate) was 86.9%. The activity at 110 µM ([1]; ATCC13032, minimal medium, 110 µM, read-out: Final Backscatter) was 101%, the activity at 110 µM ([1]; ATCC13032, minimal medium, 110 µM, read-out: Growth rate) was 79.5% and the activity at 550 µM ([1]; ATCC13032, minimal medium, 550 µM, read-out: Final Backscatter) was 18.8%. For the same compound, the “Influence on bacterial growth” value ([1]; Minimal medium, highest concentration tested (10× IC50) if not stated otherwise) was “μ↓ (≥IC50), no growth (10× IC50)”, the “Lag Phase” value ([1]; complex medium, 55 µM) was 96,2% and the “Lag Phase” value ([1]; complex medium, 110 µM) was 98,4%. The “Lag Phase” value ([1]; complex medium, 550 µM) was 120,7%, the “Lag Phase” value ([1]; minimal medium, 55 µM) was 114,0% and the “Lag Phase” value ([1]; minimal medium, 110 µM) was 133,1%. For the same compound, the activity at 55 µM ([2]; MG1655, complex medium, 55 µM, read-out: Final Backscatter) was 101%, the activity at 55 µM ([2]; MG1655, complex medium, 55 µM, read-out: Growth rate) was 103% and the activity at 550 µM ([2]; MG1655, complex medium, 550 µM, read-out: Final Backscatter) was 103%. For the same compound, the activity at 55 µM ([2]; MG1655, minimal medium, 55 µM, read-out: Final Backscatter) was 99.1%, the activity at 55 µM ([2]; MG1655, minimal medium, 55 µM, read-out: Growth rate) was 122% and the activity at 550 µM ([2]; MG1655, minimal medium, 550 µM, read-out: Final Backscatter) was 96.4%. For the same compound, the “Lag Phase” value ([2]; complex medium, 55 µM) was 103,1%, the “Lag Phase” value ([2]; complex medium, 550 µM) was 117,2% and the “Lag Phase” value ([2]; minimal medium, 55 µM) was 105,9%. For the same compound, the “Lag Phase” value ([2]; minimal medium, 550 µM) was 103,0% and the Influence on plants [3] was “No”.
For `O=C(/C=C/c1cc(O)c(O)c(O)c1)c1ccc(O)cc1O` [Compound 9, 2′,4′,3,4,5-Pentahydroxychalcone], the activity at 0.3 µM ([1]; ATCC13032, complex medium, 0.3 µM, read-out: Final Backscatter) was 99.6%, the activity at 0.3 µM ([1]; ATCC13032, complex medium, 0.3 µM, read-out: Growth rate) was 104% and the activity at 3 µM ([1]; ATCC13032, complex medium, 3 µM, read-out: Final Backscatter) was 102%. It also gave an activity at 3 µM ([1]; ATCC13032, complex medium, 3 µM, read-out: Growth rate) of 111%, an activity at 30 µM ([1]; ATCC13032, complex medium, 30 µM, read-out: Final Backscatter) of 96.7% and an activity at 30 µM ([1]; ATCC13032, complex medium, 30 µM, read-out: Growth rate) of 112%. For the same compound, the activity at 0.3 µM ([1]; ATCC13032, minimal medium, 0.3 µM, read-out: Final Backscatter) was 99.9%, the activity at 0.3 µM ([1]; ATCC13032, minimal medium, 0.3 µM, read-out: Growth rate) was 104% and the activity at 3 µM ([1]; ATCC13032, minimal medium, 3 µM, read-out: Final Backscatter) was 96.9%. It also gave an activity at 3 µM ([1]; ATCC13032, minimal medium, 3 µM, read-out: Growth rate) of 103%, an activity at 30 µM ([1]; ATCC13032, minimal medium, 30 µM, read-out: Final Backscatter) of 97.7% and an activity at 30 µM ([1]; ATCC13032, minimal medium, 30 µM, read-out: Growth rate) of 97.3%. The “Lag Phase” value ([1]; complex medium, 0.3 µM) was 98,5%, the “Lag Phase” value ([1]; complex medium, 3 µM) was 98,0% and the “Lag Phase” value ([1]; complex medium, 30 µM) was 94,5%. The “Lag Phase” value ([1]; minimal medium, 0.3 µM) was 98,6%, the “Lag Phase” value ([1]; minimal medium, 3 µM) was 98,6% and the “Lag Phase” value ([1]; minimal medium, 30 µM) was 98,6%. For the same compound, the activity at 0.3 µM ([2]; MG1655, complex medium, 0.3 µM, read-out: Final Backscatter) was 100%, the activity at 0.3 µM ([2]; MG1655, complex medium, 0.3 µM, read-out: Growth rate) was 103% and the activity at 3 µM ([2]; MG1655, complex medium, 3 µM, read-out: Final Backscatter) was 99.7%. It also gave an activity at 3 µM ([2]; MG1655, complex medium, 3 µM, read-out: Growth rate) of 95.4%, an activity at 30 µM ([2]; MG1655, complex medium, 30 µM, read-out: Final Backscatter) of 98.2% and an activity at 30 µM ([2]; MG1655, complex medium, 30 µM, read-out: Growth rate) of 87.6%. The activity at 0.3 µM ([2]; MG1655, minimal medium, 0.3 µM, read-out: Final Backscatter) was 100%, the activity at 0.3 µM ([2]; MG1655, minimal medium, 0.3 µM, read-out: Growth rate) was 106% and the activity at 3 µM ([2]; MG1655, minimal medium, 3 µM, read-out: Final Backscatter) was 101%. The activity at 3 µM ([2]; MG1655, minimal medium, 3 µM, read-out: Growth rate) was 110%, the activity at 30 µM ([2]; MG1655, minimal medium, 30 µM, read-out: Final Backscatter) was 102% and the activity at 30 µM ([2]; MG1655, minimal medium, 30 µM, read-out: Growth rate) was 110%. For the same compound, the “Lag Phase” value ([2]; complex medium, 0.3 µM) was 103,4%, the “Lag Phase” value ([2]; complex medium, 3 µM) was 103,4% and the “Lag Phase” value ([2]; complex medium, 30 µM) was 110,3%. For the same compound, the “Lag Phase” value ([2]; minimal medium, 0.3 µM) was 100,0%, the “Lag Phase” value ([2]; minimal medium, 3 µM) was 98,2% and the “Lag Phase” value ([2]; minimal medium, 30 µM) was 96,4%. For the same compound, the Influence on plants [3] was “No”.
